Assay [1] has as its system Leishmania infantum. Kind of assay: Antileishmanial activity against Leishmania infantum MHOM/TN/1980/IPT1 incubated for 48 hrs by Neubauer hemocytometer analysis. It is filed as functional, organism-based. Conditions: MHOM/TN/1980/IPT1, 48 h.
Another assay deals with Leishmania tropica. Kind of assay: Potency index, ratio of glucantime IC50 to test compound IC50 for antileishmanial activity against Leishmania tropica MHOM/A7/1974/SAF-K27. Type of assay: functional.
In assay [2] the test system is Leishmania infantum. In words: Antileishmanial activity against Leishmania infantum infected in BALB/c mouse model of cutaneous leishmaniasis assessed as footpad lesion development at 50 mg/kg/day, ID administered for 21 days and measured after 4 weeks by Giemsa staining based analysis (reference value: 1.90 +/- 0.03). Type of assay: functional. The conditions noted are these: time 21 day.

Assay [3] deals with Leishmania infantum. In words: Antileishmanial activity against Leishmania infantum infected in BALB/c mouse model of cutaneous leishmaniasis assessed as footpad lesion development at 50 mg/kg/day, ID administered for 21 days and measured after 6 weeks by Giemsa staining based analysis (reference value: 2.40 +/- 0.03). Type of assay: functional. Conditions: time 21 day.
In assay [4] the test system is Leishmania infantum. In words: Antileishmanial activity against Leishmania infantum infected in BALB/c mouse model of cutaneous leishmaniasis assessed as footpad lesion development at 50 mg/kg/day, ID administered for 21 days and measured after 10 weeks by Giemsa staining based analysis (reference value: 3.40 +/- 0.03). It is filed as functional. Conditions: time 21 day.

For assay [5], the system named is Leishmania infantum. Kind of assay: Antileishmanial activity against Leishmania infantum infected in BALB/c mouse model of cutaneous leishmaniasis assessed as footpad lesion development at 50 mg/kg/day, ID administered for 21 days and measured after 12 weeks by Giemsa staining based analysis (reference value: 3.61 +/- 0.03). Type of assay: functional. The conditions noted are these: time 21 day.

In assay [6] the test system is Leishmania infantum. In words: Antileishmanial activity against Leishmania infantum infected in BALB/c mouse model of cutaneous leishmaniasis assessed as footpad lesion development at 50 mg/kg/day, ID administered for 21 days and measured after 28 weeks by Giemsa staining based analysis (reference value: 4.92 +/- 0.01). Type of assay: functional. The conditions noted are these: time 21 day.

Assay [7] concerns Leishmania infantum. Kind of assay: Antileishmanial activity against Leishmania infantum infected in BALB/c mouse model of cutaneous leishmaniasis assessed as footpad lesion development at 50 mg/kg/day, ID administered for 21 days and measured after 30 weeks by Giemsa staining based analysis (reference value: 4.92 +/- 0.01). Type of assay: functional. The conditions noted are these: time 21 day.

Assay [8] relates to Leishmania infantum. Kind of assay: Antileishmanial activity against Leishmania infantum infected in BALB/c mouse model of visceral leishmaniasis assessed as footpad lesion development at 50 mg/kg/day, IM administered for 21 days and measured after 3 weeks by Giemsa staining based analysis (reference value: 28.94 +/- 0.59). It is filed as functional. The conditions noted are these: time 21 day.

Assay [9] relates to Leishmania infantum. Kind of assay: Antileishmanial activity against Leishmania infantum infected in BALB/c mouse model of visceral leishmaniasis assessed as footpad lesion development at 50 mg/kg/day, IM administered for 21 days and measured after 5 weeks by Giemsa staining based analysis (reference value: 27.04 +/- 0.65). Conditions: time 21 day. It is filed as functional.

For assay [10], the system named is Leishmania infantum. In words: Antileishmanial activity against Leishmania infantum infected in BALB/c mouse model of visceral leishmaniasis assessed as footpad lesion development at 50 mg/kg/day, IM administered for 21 days and measured after 7 weeks by Giemsa staining based analysis (reference value: 24.85 +/- 0.88). Conditions: time 21 day. It is filed as functional.

Assay [11] deals with Leishmania infantum. Kind of assay: Antileishmanial activity against Leishmania infantum infected in BALB/c mouse model of visceral leishmaniasis assessed as footpad lesion development at 50 mg/kg/day, IM administered for 21 days and measured after 8 weeks by Giemsa staining based analysis (reference value: 23.84 +/- 0.93). Type of assay: functional. The conditions noted are these: time 21 day.

Assay [12] concerns Leishmania infantum. Kind of assay: Antileishmanial activity against Leishmania infantum infected in BALB/c mouse model of visceral leishmaniasis assessed as footpad lesion development at 50 mg/kg/day, IM administered for 21 days and measured after 9 weeks by Giemsa staining based analysis (reference value: 22.75 +/- 0.71). Type of assay: functional. Conditions: time 21 day.

Assay [13] deals with Leishmania infantum. In words: Antileishmanial activity against Leishmania infantum infected in BALB/c mouse model of visceral leishmaniasis assessed as footpad lesion development at 50 mg/kg/day, IM administered for 21 days and measured after 10 weeks by Giemsa staining based analysis (reference value: 21.58 +/- 0.74). Conditions: time 21 day. It is filed as functional.
The test system of assay [14] is Leishmania infantum. In words: Antileishmanial activity against Leishmania infantum infected in BALB/c mouse model of cutaneous leishmaniasis assessed as parasite growth in liver at 50 mg/kg/day, ID administered for 21 days. Type of assay: functional, organism-based. Conditions: time 21.0 day.

Converted amounts (≈) assume the structure as drawn. The source made the active and inactive calls. No cut-off for these calls is given here.

These results are taken from ChEMBL document CHEMBL5352486, “Design, synthesis, in vitro - In vivo biological evaluation of novel thiazolopyrimidine compounds as antileishmanial agent with PTR1 inhibition” (Eur J Med Chem, 2023).

In general, IC50 refers to the midpoint of a concentration-inhibition curve. Turning to `CCOC(=O)N1CCN(c2ncc3nc(NC(=O)c4ccc(Cl)c(Cl)c4)sc3n2)CC1`, the IC50 in the assay with Leishmania infantum [1] was determined as 0.041 µg/mL (≈ 0.0852 µM). For the same molecule, the “Ratio IC50” value with Leishmania tropica is listed as 200. Further, the Activity in the assay on Leishmania infantum [2] is recorded as 1.88; with Leishmania infantum [3], 2.4; with Leishmania infantum [4], 3.39; in the assay with Leishmania infantum [5], 3.61; in the assay on Leishmania infantum [6], 3.8; in the assay on Leishmania infantum [7], 2.89. Besides, the Activity in the assay with Leishmania infantum [8] is recorded as 28.71; in the assay with Leishmania infantum [9] it was 26.78; in the assay on Leishmania infantum [10] it was 26.22; in the assay with Leishmania infantum [11], 26.84; in the assay with Leishmania infantum [12], 27.35; in the assay with Leishmania infantum [13], 27.91. For the same molecule, in the assay on Leishmania infantum [14], the result was Active.
As to `CN(C)c1ncc2nc(NC(=O)c3ccc(Cl)c([N+](=O)[O-])c3)sc2n1`, the IC50 with Leishmania infantum [1] was found to be 7.06 µg/mL (≈ 18.6 µM). The Activity stood at 1.89 in the assay on Leishmania infantum [2]; 2.39 with Leishmania infantum [3]; 3.37 in the assay with Leishmania infantum [4]; 3.61 in the assay on Leishmania infantum [5]; 3.71 in the assay on Leishmania infantum [6]; 2.58 in the assay with Leishmania infantum [7]. In addition, the Activity in the assay on Leishmania infantum [8] is recorded as 28.71; in the assay on Leishmania infantum [9], 26.95; in the assay with Leishmania infantum [10], 26.77; with Leishmania infantum [11], 27.42; in the assay on Leishmania infantum [12] it was 28.13; in the assay with Leishmania infantum [13], 29.09. The result with Leishmania infantum [14] was Active.
The molecule `CN1CCN(c2ncc3nc(NC(=O)c4ccc(Cl)c(Cl)c4)sc3n2)CC1` came in with a half-inhibitory concentration (IC50) with Leishmania infantum [1] of 8.16 µg/mL (≈ 19.3 µM). In addition, the Activity with Leishmania infantum [2] turned out to be 1.88; in the assay on Leishmania infantum [3] it was 2.41; in the assay on Leishmania infantum [4], 3.41; with Leishmania infantum [5], 3.61; in the assay on Leishmania infantum [6], 4.83; with Leishmania infantum [7] it was 4.78. Moreover, the Activity in the assay with Leishmania infantum [8] is reported as 28.73; in the assay with Leishmania infantum [9], 26.63; with Leishmania infantum [10] it was 24.43; in the assay with Leishmania infantum [11], 23.36; with Leishmania infantum [12], 22.18; with Leishmania infantum [13] it was 21.12. The outcome in the assay on Leishmania infantum [14] was Active.
